From the supplement of paper PMC12137928
Structures can show the parent of a compound that is named as a salt.

Tested on: HCT116
Settings: 72 h
How it was run: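 HCT116 cells were plated at 250 per well in 1536-well plates and allowed 5 h to attach. CellTiter-Glo luminescence was normalized to vehicle as 0% and positive control as -100%, followed by pattern correction. Four-parameter Hill fits provided IC50 and maximal efficacy.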

SMILES | IC50 cell viability (ICRF193 0 nM) [µM] | IC50 cell viability (ICRF193 200 nM) [µM]
COc1cccc(CCc2ccccc2OCC(CN(C)C)OC(=O)CCC(=O)O)c1 (configuration not stated) [Sarpogrelate hydrochloride] | > 45.8 | > 45.8
N#C[C@@H]1C[C@@H]2C[C@@H]2N1C(=O)[C@@H](N)C12CC3CC(CC(O)(C3)C1)C2 [Saxagliptin] | > 45.8 | > 45.8
COc1cc2c(c(OC)c1OC)-c1c(cc3c(c1OC)OCO3)C[C@H](C)[C@@](C)(O)C2 [Schisandrol B] | > 45.8 | > 45.8
CN1[C@@H]2C[C@@H](OC(=O)[C@H](CO)c3ccccc3)C[C@H]1[C@@H]1O[C@@H]12 [Scopolamine hydrobromide] | > 45.8 | > 45.8
C[N+]1(C)[C@@H]2C[C@@H](OC(=O)[C@H](CO)c3ccccc3)C[C@H]1[C@@H]1O[C@@H]12 [Scopolamine methylbromide] | > 45.8 | > 45.8
Cc1ncc([N+](=O)[O-])n1CC(C)O (configuration not stated) [Secnidazole] | > 45.8 | > 45.8
C#CCN(C)[C@H](C)Cc1ccccc1 [Selegiline hydrochloride] | > 45.8 | > 45.8
C[Se]CC[C@H](N)C(=O)O [Selenomethionine] | > 45.8 | > 45.8
C=C1/C(=C\C=C2/CCC[C@]3(C)[C@@H]([C@H](C)/C=C/C=C/C(O)(CC)CC)CC[C@@H]23)C[C@@H](O)C[C@@H]1O [Seocalcitol] | > 45.8 | > 45.8
CC1=C(C)C(=O)C(C(CCCCCC(=O)O)c2ccccc2)=C(C)C1=O (configuration not stated) [Seratrodast] | > 45.8 | > 45.8
C=CCN.ClCC1CO1 (configuration not stated) [Sevelamer Hydrochloride (Technical Grade)] | > 45.8 | > 45.8
FCOC(C(F)(F)F)C(F)(F)F [Sevoflurane] | > 45.8 | > 45.8
Cc1cc(O)c2c(c1)O[C@@]1(C)CC[C@H]3C(C)(C)CCC[C@]34CO[C@@H]2[C@H]41 [Siccanin] | > 45.8 | > 45.8
CCCc1nn(C)c2c(=O)[nH]c(-c3cc(S(=O)(=O)N4CCN(C)CC4)ccc3OCC)nc12 [Sildenafil citrate] | > 45.8 | > 45.8
C[C@H](Cc1cc2c(c(C(N)=O)c1)N(CCCO)CC2)NCCOc1ccccc1OCC(F)(F)F [Silodosin] | > 45.8 | > 45.8
COc1ccc2c(O[C@@H]3C[C@H]4C(=O)N[C@]5(C(=O)NS(=O)(=O)C6CC6)C[C@H]5/C=C\CCCCN(C)C(=O)[C@@H]4C3)cc(-c3nc(C(C)C)cs3)nc2c1C [Simeprevir] | > 45.8 | > 45.8
CCCc1ccc(OCC(=O)N2CCN(C(=O)COc3ccc(CCC)cc3OC)CC2)c(OC)c1 [Simetride] | > 45.8 | > 45.8
CSCC[C@H](NC(=O)[C@H](Cc1ccc(OS(=O)(=O)O)cc1)NC(=O)[C@@H](N)CC(=O)O)C(=O)NCC(=O)N[C@@H](Cc1c[nH]c2ccccc12)C(=O)N[C@@H](CCSC)C(=O)N[C@@H](CC(=O)O)C(=O)N[C@@H](Cc1ccccc1)C(N)=O [Sincalide] | > 45.8 | > 45.8
N[C@@H]1CN(c2c(F)cc3c(=O)c(C(=O)O)cn([C@@H]4C[C@@H]4F)c3c2Cl)CC12CC2 [Sitafloxacin hydrate] | > 45.8 | > 45.8
N[C@@H](CC(=O)N1CCn2c(nnc2C(F)(F)F)C1)Cc1cc(F)c(F)cc1F [Sitagliptin] | > 45.8 | > 45.8
Cc1cc2c(cc1CC(=O)c1sccc1S(=O)(=O)Nc1onc(C)c1Cl)OCO2 [Sitaxentan] | > 45.8 | > 45.8
CC(C)(C)C(=O)Oc1ccc(S(=O)(=O)Nc2ccccc2C(=O)NCC(=O)O)cc1 [Sivelestat sodium hydrate] | > 45.8 | > 45.8
CC(C)COC(=O)OCN1C(=O)CN(CCN2CC(=O)N(COC(=O)OCC(C)C)C(=O)C2)CC1=O [Sobuzoxane] | > 45.8 | > 45.8
Oc1ccccc1-c1ccccc1 [Sodium 2-phenylphenate tetrahydrate] | > 45.8 | > 45.8
O=C(CCCN1CCC2(CC1)C(=O)NCN2c1ccccc1)c1ccc(F)cc1 [Spiperone] | > 45.8 | > 45.8
O=C1C[C@@H]2OCC=C3CN4CC[C@]56c7ccccc7N1[C@H]5[C@H]2[C@H]3C[C@H]46 [Strychnine] | > 45.8 | > 45.8

Next, values leading:

IC50 cell viability (ICRF193 0 nM) [µM] | IC50 cell viability (ICRF193 200 nM) [µM] | SMILES
> 45.8 | > 45.8 | O=S(=O)(O)CC(S)CS (configuration not stated) [Sodium 2,3-dimercaptopropanesulfonate monohydrate]
> 45.8 | > 45.8 | O=S(=O)(O)CCS [Sodium 2-mercaptoethanesulfonate]
> 45.8 | > 45.8 | Cc1ccc(C(=O)C(=O)O)cc1C [Sodium 3, 4-dimethylphenyl-glyoxylate]
> 45.8 | > 45.8 | O=C(O)CCCc1ccccc1 [Sodium 4-phenylbutyrate]
> 45.8 | > 45.8 | O=C([O-])CC([S-])C(=O)[O-].[Au+].[Na+].[Na+] (configuration not stated) [Sodium aurothiomalate(I)]
> 45.8 | > 45.8 | O=C(O)c1cc(=O)c2c(OCC(O)COc3cccc4oc(C(=O)O)cc(=O)c34)cccc2o1 [Sodium cromoglycate]
> 45.8 | > 45.8 | CCCCCCCCCC(=O)NO [Sodium decanehydroxamate]
> 45.8 | > 45.8 | C[C@H](CCC(=O)O)[C@H]1CC[C@H]2[C@@H]3CC[C@@H]4C[C@H](O)CC[C@]4(C)[C@H]3C[C@H](O)[C@]12C [Sodium deoxycholate monohydrate]
> 45.8 | > 45.8 | CCCCCCCCCCCCOS(=O)(=O)[O-].[Na+] [Sodium dodecyl sulfate]
> 45.8 | > 45.8 | CCCC(=O)Nc1c(I)cc(I)c(CC(CC)C(=O)O)c1I (configuration not stated) [Sodium tyropanoate]
> 45.8 | > 45.8 | O=c1[nH]c(=O)c2[nH]c(O)nc2[nH]1 [Sodium urate]
> 45.8 | > 45.8 | CC1O[C@H](O[C@]2(O[C@H]3CC[C@@]4(C)C(=CC[C@H]5[C@@H]6C[C@H]7[C@H]([C@H](C)[C@H]8CC[C@H](C)CN87)[C@@]6(C)CC[C@@H]54)C3)C[C@@H](O[C@@H]3OC(CO)[C@@H](O)[C@@H](O)C3O)[C@@H](O)C(CO)O2)C(O)[C@@H](O)[C@H]1O (stereo partly drawn) [Solanine alpha]
> 45.8 | > 45.8 | O=C(O[C@H]1CN2CCC1CC2)N1CCc2ccccc2[C@@H]1c1ccccc1 [Solifenacin (hydrochloride)]
> 45.8 | > 45.8 | C/C=C/C=C/C(=O)O [Sorbic acid]
> 45.8 | > 45.8 | CCCCCCCCCCCCCCCC(=O)OC[C@@H](O)[C@H]1OC[C@H](O)[C@H]1O [Sorbitan monohexadecanoate]
> 45.8 | > 45.8 | CC(C)NCC(O)c1ccc(NS(C)(=O)=O)cc1 (configuration not stated) [Sotalol]
> 45.8 | > 45.8 | C[C@@H]1CN(c2c(F)c(N)c3c(=O)c(C(=O)O)cn(C4CC4)c3c2F)C[C@H](C)N1 [Sparfloxacin]
> 45.8 | > 45.8 | C1CCN2C[C@@H]3C[C@@H](CN4CCCC[C@@H]34)[C@H]2C1 [Sparteine]
> 45.8 | > 45.8 | CN[C@@H]1[C@H](O)[C@H](NC)[C@H]2O[C@@]3(O)C(=O)C[C@@H](C)O[C@H]3O[C@@H]2[C@H]1O [Spectinomycin dihydrochloride]
> 45.8 | > 45.8 | CO[C@@H]1[C@@H](O[C@@H]2O[C@H](C)[C@@H](O[C@H]3C[C@@](C)(O)[C@@H](O)[C@H](C)O3)[C@H](N(C)C)[C@H]2O)[C@@H](CC=O)C[C@@H](C)[C@@H](O[C@H]2CC[C@H](N(C)C)[C@@H](C)O2)/C=C/C=C/C[C@@H](C)OC(=O)C[C@H]1OC(C)=O [Spiramycin II]
> 45.8 | > 45.8 | CC(C)CCCC(C)CCCC(C)CCCCC(C)CCCC(C)CCCC(C)C (configuration not stated) [Squalane]
> 45.8 | > 45.8 | CC(C)=CCC/C(C)=C/CC/C(C)=C/CC/C=C(\C)CC/C=C(\C)CCC=C(C)C [Squalene]
> 45.8 | > 45.8 | Cc1cn([C@H]2C=C[C@@H](CO)O2)c(=O)[nH]c1=O [Stavudine]
> 45.8 | > 45.8 | CC(C)(C)C(O)/C=C/c1ccc2c(c1)OCO2 (configuration not stated) [Stiripentol]
> 45.8 | > 45.8 | CN[C@@H]1[C@H](O[C@H]2[C@H](O[C@H]3[C@H](O)[C@@H](O)[C@H](N=C(N)N)[C@@H](O)[C@@H]3N=C(N)N)O[C@@H](C)[C@]2(O)C=O)O[C@@H](CO)[C@H](O)[C@H]1O [Streptomycin sulfate]
> 45.8 | > 45.8 | CN(N=O)C(=O)N[C@@H](C=O)[C@@H](O)[C@H](O)[C@H](O)CO [Streptozotocin]
> 45.8 | > 45.8 | N#Cc1c(N(CC(=O)O)CC(=O)O)sc(C(=O)O)c1CC(=O)O [Strontium Ranelate]
> 45.8 | > 45.8 | C=Cc1ccccc1 [Styrene]
> 45.8 | > 45.8 | C[N+](C)(C)CCOC(=O)CCC(=O)OCC[N+](C)(C)C [Succinylcholine chloride]
> 45.8 | > 45.8 | O=C(O)CCC(=O)Nc1ccc(S(=O)(=O)Nc2nccs2)cc1 [Succinylsulfathiazole]
